For this test, the target named is T1, Human AhR (Homo sapiens, UniProt P35869).
T1 construct: expressed in transfected cells
T1 sequence (P35869 11-848): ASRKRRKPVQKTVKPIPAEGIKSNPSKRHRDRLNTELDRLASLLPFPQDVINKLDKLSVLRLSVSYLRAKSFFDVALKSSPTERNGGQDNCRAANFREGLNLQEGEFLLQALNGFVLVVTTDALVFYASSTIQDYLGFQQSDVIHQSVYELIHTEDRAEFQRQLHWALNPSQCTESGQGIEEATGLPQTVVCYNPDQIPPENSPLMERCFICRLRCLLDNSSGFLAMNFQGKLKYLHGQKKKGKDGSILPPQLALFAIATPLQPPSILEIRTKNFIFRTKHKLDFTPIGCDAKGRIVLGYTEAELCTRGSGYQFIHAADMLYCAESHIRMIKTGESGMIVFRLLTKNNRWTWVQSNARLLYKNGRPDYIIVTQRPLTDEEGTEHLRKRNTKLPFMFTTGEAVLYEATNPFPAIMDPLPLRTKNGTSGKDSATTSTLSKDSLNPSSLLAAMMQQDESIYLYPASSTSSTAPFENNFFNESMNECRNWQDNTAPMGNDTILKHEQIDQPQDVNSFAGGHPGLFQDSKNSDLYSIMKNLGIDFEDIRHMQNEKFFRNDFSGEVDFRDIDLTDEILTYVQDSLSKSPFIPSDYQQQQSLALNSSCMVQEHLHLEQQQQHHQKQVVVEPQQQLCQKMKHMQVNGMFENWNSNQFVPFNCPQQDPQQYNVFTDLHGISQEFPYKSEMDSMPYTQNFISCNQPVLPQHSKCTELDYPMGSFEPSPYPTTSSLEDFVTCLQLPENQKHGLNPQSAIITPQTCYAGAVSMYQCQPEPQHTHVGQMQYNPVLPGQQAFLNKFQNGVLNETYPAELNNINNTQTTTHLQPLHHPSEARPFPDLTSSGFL
The experiment in a line: hAHR Nuclear Translocation Assay. It counts as cell-based. As to conditions: AhR-EGFP nuclear translocation in Jump-In T-REx HEK293 cells, 45 minutes incubation, read-out: Rel EC50. The text has this:
The purpose of this assay is to measure the ability of compounds to bind to, activate, and induce the translocation of AhR into the nucleus of a cell for transcription. Stable cell lines were established using Jump-InTM T-RExTM HEK293 Retargeting Kit (Life Technologies). Human AhR cDNA was cloned into the pJTI R4 CMV-TO EGFP vector. The EGFP was cloned to the C-terminal of AHR to form AhR-EGFP chimera. The pJTI R4 CMV-TO AhR-EGFP vector was transfected using FuGENE® HD into Jump-InTM T-RExTM HEK293 cells. Transfected cells were selected using 2.5 mg/ml G418 for 10 to 14 days, then expanded, harvested, and suspended in freeze media (FBS with 8% DMSO) at 2×10^7 cells/ml, and aliquots were stored in liquid nitrogen. One day before the assay date, cells were thawed and resuspended in DMEM with 5% FBS in the presence of 1 μg/ml Doxycycline and plated into ploy-L-Lysine coated […]-384 ULTRA Microplates (Perkin Elmer) at 12,000 to 15,000 cells per well and incubated at 37° C. and 5% CO2 overnight. On the assay date, compound was serially diluted (1:2) into 384-well nunc plates with DMSO using acoustic dispensing (ECHO®). The dose response was a 20-point curve. […] The culture media was damped and 25 μl of DMEM plus 0.1% BSA was added, then 25 μL of compound in DMEM plus 0.1% BSA was added into cell plates. Cells were incubated compounds at 37° C. and 5% CO2 for 45 minutes. The final DMSO concentration was 0.2%. The media was damped after 45 minutes incubation. The cells were fixed with 40 μl of cold MeOH (-20° C.) for 20 minutes. The MeOH was damped and 50 μL of DPBS containing 1 μg/mL Hochst was added into the cell plates. The intensity of EGFP was quantitated by using Opera PHENIX® or OPERETTA® high content image system (Perkin Elmer) with 20× Water Objective and five field per well. The ratio of EGFP fluorescent intensity in nuclear over cytosol was analyzed using a 4-parameter nonlinear logistic equation to determine the potency of AhR agonists.

For 24 compounds, EC50 results are on record in patent US20240199608A1 (Eli Lilly and Company, priority 2022, published 2024).

Where two headings read alike, the source gives them in different places.

A word on the EC50: it is the midpoint of the concentration-response curve. Take `CC1CCc2c1cc(C(=O)Nc1ccc(F)cn1)c1nncn21` (single isomer, unassigned) [Example 42, N-(5-Fluoropyridin-2-yl)-6-methyl-7,8-dihydro-6H-cyclopenta[e][1,2,4] triazolo[4,3-a]pyridine-4-carboxamide]: under “class symbols”, the EC50 was in the range of 1 to 10 nM. As for `CC1CCc2c1cc(C(=O)Nc1nccs1)c1nncn21` (single isomer, unassigned) [Example 24, 6-Methyl-N-(thiazol-2-yl)-7,8-dihydro-6H-cyclopenta[e][1,2,4] triazolo[4,3-a]pyridine-4-carboxamide], the EC50 (class symbols) fell in the range of 1 to 10 nM. In the case of `CCC1CCc2c1cc(C(=O)Nc1ncc(F)cn1)c1nncn21` (single isomer, unassigned) [Example 57, 6-Ethyl-N-(5-fluoropyrimidin-2-yl)-7,8-dihydro-6H-cyclopenta[e][1,2,4] triazolo[4,3-a]pyridine-4-carboxamide], the EC50 (class symbols) was 1 to 10 nM. As for `CC1CCc2c1cc(C(=O)Nc1ncc(C(F)(F)F)cn1)c1nncn21` (single isomer, unassigned) [Example 27, 6-Methyl-N-(5-(trifluoromethyl)pyrimidin-2-yl)-7,8-dihydro-6H-cyclopenta[e][1,2,4] triazolo[4,3-a]pyridine-4-carboxamide], the EC50 (class symbols) lay in the range of 1 to 10 nM. On to `C[C@H]1CCc2c1cc(C(=O)Nc1ncc(F)cn1)c1nccn21` (single isomer, unassigned) [Example 14, N-(5-Fluoropyrimidin-2-yl)-6-methyl-7,8-dihydro-6H-cyclopenta[e]imidazo[1,2-a]pyridine-4-carboxamide], for which the EC50 (numeric values) worked out at 1.66 nM. With `Cc1nnc2c(C(=O)Nc3ncc(F)cn3)cc3c(n12)CCC3C` (single isomer, unassigned) [Example 53, N-(5-Fluoropyrimidin-2-yl)-1,6-dimethyl-7,8-dihydro-6H-cyclopenta[e][1,2,4] triazolo[4,3-a]pyridine-4-carboxamide], the EC50 (class symbols) is above 50 nM.

Turning to `Cc1cnc(NC(=O)c2cc3c(n4cnnc24)CCC3C)nc1` (single isomer, unassigned) [Example 28, 6-Methyl-N-(5-methylpyrimidin-2-yl)-7,8-dihydro-6H-cyclopenta[e][1,2,4]tria zolo[4,3-a]pyridine-4-carboxamide], the EC50 (class symbols) is 10 to 50 nM. `C[C@H]1CCc2c1cc(C(=O)Nc1ccccn1)c1nccn21` (single isomer, unassigned) [Example 10, 6-Methyl-N-(pyridin-2-yl)-7,8-dihydro-6H-cyclopenta[e]imidazo[1,2-a]pyridine-4-carboxamide]: the EC50 (numeric values) was 1.32 nM. For the compound `CC1CCc2c1cc(C(=O)Nc1ccc(C(F)(F)F)cn1)c1nncn21` (single isomer, unassigned) [Example 35, 6-Methyl-N-(5-(trifluoromethyl)pyridin-2-yl)-7,8-dihydro-6H-cyclopenta[e][1,2,4] triazolo[4,3-a]pyridine-4-carboxamide], the EC50 (class symbols) was 1 to 10 nM.

Consider `CC1CCc2c1cc(C(=O)Nc1ncccc1F)c1nncn21` (single isomer, unassigned) [Example 37, N-(3-Fluoropyridin-2-yl)-6-methyl-7,8-dihydro-6H-cyclopenta[e][1,2,4] triazolo[4,3-a]pyridine-4-carboxamide], for which, where the note is “class symbols”, the EC50 fell in the range of 1 to 10 nM. As for `CC(C)OC1CCc2c1cc(C(=O)Nc1ncc(F)cn1)c1nncn21` (single isomer, unassigned) [Example 50, N-(5-Fluoropyrimidin-2-yl)-6-isopropoxy-7,8-dihydro-6H-cyclopenta[e][1,2,4] triazolo[4,3-a]pyridine-4-carboxamide], under “class symbols”, the half-maximal effective concentration (EC50) is above 50 nM. For the compound `CC1CCc2c1cc(C(=O)Nc1ncc(F)cn1)c1nccn21` (single isomer, unassigned) [Example 13, N-(5-Fluoropyrimidin-2-yl)-6-methyl-7,8-dihydro-6H-cyclopenta[e]imidazo[1,2-a]pyridine-4-carboxamide], the EC50 (numeric values) was 0.495 nM. For the compound `O=C(Nc1ncc(F)cn1)c1cc2ccccc2n2ccnc12` [Example 2, N-(5-Fluoropyrimidin-2-yl)imidazo[1,2-a]quinoline-4-carboxamide], the EC50 (numeric values) was 0.585 nM. With `CC1CCc2c1cc(C(=O)Nc1nccs1)c1nncn21` (single isomer, unassigned) [Example 25, 6-Methyl-N-(thiazol-2-yl)-7,8-dihydro-6H-cyclopenta[e][1,2,4] triazolo[4,3-a]pyridine-4-carboxamide], the EC50 (class symbols) is 1 to 10 nM.

In the case of `CC1CCc2c1cc(C(=O)Nc1ccccn1)c1nncn21` (single isomer, unassigned) [Example 3], the EC50 (numeric values) was found to be 5.37 nM.

For the compound `C[C@H]1CCc2c1cc(C(=O)Nc1ncccn1)c1nccn21` (single isomer, unassigned) [Example 12, 6-Methyl-N-(pyrimidin-2-yl)-7,8-dihydro-6H-cyclopenta[e]imidazo[1,2-a]pyridine-4-carboxamide], the EC50 (numeric values) worked out at 9.8 nM. With `CC1CCc2c1cc(C(=O)Nc1ccccn1)c1nccn21` (single isomer, unassigned) [Example 9, 6-Methyl-N-(pyridin-2-yl)-7,8-dihydro-6H-cyclopenta[e]imidazo[1,2-a]pyridine-4-carboxamide], for the setting “numeric values”, the EC50 worked out at 3.37 nM. Consider `CC(C)c1nnc2c(C(=O)Nc3ncc(F)cn3)cc3c(n12)CCC3C` (single isomer, unassigned) [Example 55, N-(5-Fluoropyrimidin-2-yl)-1-isopropyl-6-methyl-7,8-dihydro-6H-cyclopenta[e][1,2,4] triazolo[4,3-a]pyridine-4-carboxamide], for which, where the note is “class symbols”, the EC50 is above 50 nM.

As to `CCC1CCc2c1cc(C(=O)Nc1ncc(F)cn1)c1nncn21` (single isomer, unassigned) [Example 56, 6-Ethyl-N-(5-fluoropyrimidin-2-yl)-7,8-dihydro-6H-cyclopenta[e][1,2,4] triazolo[4,3-a]pyridine-4-carboxamide], the EC50 (class symbols) was in the range of 1 to 10 nM. For `O=C(Nc1ncc(F)cn1)c1cc2ccccc2n2cnnc12` [Example 1, N-(5-Fluoropyrimidin-2-yl)-[1,2,4]triazolo[4,3-a]quinoline-4-carboxamide], where the note is “numeric values”, the EC50 was 3.1 nM.

Regarding `CC1CCc2c1cc(C(=O)Nc1ccc(F)cn1)c1nncn21` (single isomer, unassigned) [Example 43, N-(5-Fluoropyridin-2-yl)-6-methyl-7,8-dihydro-6H-cyclopenta[e][1,2,4]triazolo[4,3-a]pyridine-4-carboxamide], the EC50 (class symbols) fell in the range of 1 to 10 nM. As for `COc1cnc(NC(=O)c2cc3c(n4cnnc24)CCC3C)nc1` (single isomer, unassigned) [Example 49, N-(5-Methoxypyrimidin-2-yl)-6-methyl-7,8-dihydro-6H-cyclopenta[e][1,2,4] triazolo[4,3-a]pyridine-4-carboxamide], the EC50 (class symbols) was in the range of 10 to 50 nM. On to `CC1CCc2c1cc(C(=O)Nc1ccc(C(F)(F)F)cn1)c1nncn21` (single isomer, unassigned) [Example 34, 6-Methyl-N-(5-(trifluoromethyl)95yridine-2-yl)-7,8-dihydro-6H-cyclopenta[e][1,2,4] triazolo[4,3-a]pyridine-4-carboxamide], for which the EC50 (class symbols) lay within 1 to 10 nM.

Take `C[C@H]1CCc2c1cc(C(=O)Nc1ncccn1)c1nncn21` (single isomer, unassigned) [Example 8, 6-Methyl-N-(pyrimidin-2-yl)-7,8-dihydro-6H-cyclopenta[e][1,2,4]triazolo [4,3-a]pyridine-4-carboxamide]: the EC50 (numeric values) amounted to 25.3 nM.
